Where a name gives a salt, the structure may show the parent alone.
Tested on: phenylquinone-induced writhing reactions in mice
Experiment: Phenylquinone-induced writhing test in mice
Format: in vivo
Conditions: Mus musculus, iv; male mice, 10 mg/kg i.v.; phenylquinone i.p. 10 minutes after test substance; writhing counted 5-20 minutes after phenylquinone
Procedure: The analgesic effectiveness of the compounds according to the invention is investigated in mice by the phenylquinone-induced writhing test as modified by I. C. Hendershot, J. Forsaith in J. Pharmacol. Exp. Ther. 125, 237-240 (1959). For this purpose male mice weighing 25-30 g are used. Groups in each case of 10 animals received per substance a dose, 10 minutes after intravenous administration of the test substances, 0.3 ml/mouse of a 0.02% aqueous solution of phenylquinone (phenylbenzoquinone, Sigma, Deisenhofen; solution prepared under the addition of 5% ethanol and storage in a water bath at 45° C.) applied intraperitoneally. The animals were then placed individually in observation cages. The number of pain-induced stretching movements (so-called writhing reactions=straightening of the body with stretching of the rear extremities) was counted with a push-button counter 5-20 minutes after administration of the phenyl quinone. Animals that had only received physiological saline solution with the phenylquinone served as controls.
All substances were tested in a standard dose of 10 mg/kg. The percentage inhibition (% inhibition) of the writhing reactions achieved by a substance was calculated according to the following formula: [formula]

Row | Compound | inhibition in vivo at 10 mg/kg
1 | CN(C)CC(Cc1ccccc1)C(=O)c1cccc(OCc2ccccc2)c1 (racemic) [Example 2, (2RS)-1-(3-benzyloxyphenyl)-2-dimethylaminomethyl-3-phenylpropan-1-one hydrochloride] | 85%
2 | CN(C)CC(Cc1ccccc1)C(=O)c1cccc(O)c1.Cl (racemic) [Example 6, (2RS)-2-benzyl-3-dimethylamino-1-(3-hydroxyphenyl)-propan-1-one hydrochloride] | 84%
3 | COc1cccc(C(=O)[C@@H](Cc2ccccc2)CN(C)C)c1 [Example 11, (−)-(S)-2-benzyl-3-dimethylamino-1-(3-methoxyphenyl)-propan-1-one hydrochloride] | 90%
4 | CN(C)CC(Cc1ccccc1)C(=O)c1ccc2cc(O)ccc2c1.Cl (racemic) [Example 29, (2RS)-2-benzyl-3-dimethylamino-1-(6-hydroxynaphthalen-2-yl)-propan-1-one hydrochloride] | 82%
5 | COc1ccc(OC)c(C(=O)C(Cc2ccccc2)CN(C)C)c1.Cl (racemic) [Example 8, (2RS)-2-benzyl-1-(2,5-dimethoxyphenyl)-3-dimethylaminopropan-1-one hydrochloride] | 92%
6 | C/C=C(\c1cccc(OC)c1)C(Cc1ccccc1)CN(C)C (racemic) [Example 65, Z-(2RS)-[2-benzyl-3-(3-methoxyphenyl)-pent-3-enyl]-dimethyl-amine hydrochloride] | 100%
7 | CSc1cccc(C(=O)C(Cc2ccccc2)CN(C)C)c1.Cl (racemic) [Example 22, (2RS)-2-benzyl-3-dimethylamino-1-(3-methylsulfanylphenyl)-propan-1-one hydrochloride] | 62%
8 | COc1ccc(C(=O)C(Cc2ccccc2)CN(C)C)c(C)c1C (racemic) [Example 71, (2RS)-2-benzyl-3-dimethylamino-1-(4-methoxy-2,3-dimethylphenyl)-propan-1-one hydrochloride] | 94%
9 | COc1cc(OC)cc(C(=O)C(Cc2ccccc2)CN(C)C)c1 (racemic) [Example 7, (2RS)-2-benzyl-1-(3,5-dimethoxyphenyl)-3-dimethylamino-propan-1-one hydrochloride] | 75%
10 | CN(C)CC(Cc1ccccc1)C(=O)c1cccc(C#N)c1.Cl (racemic) [Example 26, (2RS)-3-(2-benzyl-3-dimethylaminopropionyl)-benzonitrile hydrochloride] | 79%
11 | CN(C)CC(Cc1ccccc1)C(=O)c1cc(Cl)ccc1Cl (racemic) [Example 13, (2RS)-2-benzyl-1-(2,5-dichlorophenyl)-3-dimethylaminopropan-1-one hydrochloride] | 70%
12 | COc1cccc(C(=O)C(Cc2cccc(Cl)c2)CN(C)C)c1 (racemic) [Example 72, (2RS)-2-(3-chlorobenzyl)-3-dimethylamino-1-(3-methoxyphenyl)-propan-1-one hydrochloride] | 85%

Tested on: not given
Experiment: not given
Conditions: not given

Row | melting point | Compound
13 | 111 °C | COc1cccc(C(=O)C(Cc2ccccc2F)CN(C)C)c1.Cl (racemic)
14 | 138 °C | COc1cccc(C(=O)C(Cc2ccc(F)cc2)CN(C)C)c1.Cl (racemic)
15 | 134 to 134.8 °C | CN(C)CC(Cc1ccccc1)C(=O)c1ccccc1-c1ccccc1.Cl (racemic)
16 | 139.1 °C | COc1cccc(C(=O)[C@@H](CN(C)C)[C@H](c2ccccc2)c2cccc(OC)c2)c1.Cl (racemic)
17 | 123 °C | CN(C)CC(Cc1ccccc1)C(=O)c1ccccc1O.Cl (racemic)
18 | 88 to 95 °C | COc1ccc2cc(C(=O)C(Cc3ccccc3)CN(C)C)ccc2c1.Cl (racemic)
19 | 141 °C | COc1ccc(C(=O)C(Cc2ccccc2)CN(C)C)c(OC)c1OC.Cl (racemic)
20 | 138.7 °C | CN(C)CC(Cc1ccccc1)C(=O)c1ccc2ccc3ccccc3c2c1.Cl (racemic)
21 | 104 °C | CN(C)CC(Cc1ccccc1)C(=O)c1cccc(C(F)(F)F)c1.Cl (racemic)
22 | 159 °C | COc1ccccc1C(=O)C(Cc1ccccc1)CN(C)C.Cl (racemic)
23 | 150.3 °C | CN(C)CC(Cc1ccccc1)C(=O)c1ccc(F)cc1Cl.Cl (racemic)
24 | 114 °C | CN(C)CC(Cc1ccccc1)C(=O)c1cccc(Cl)c1Cl.Cl (racemic)
25 | 177 °C | CN(C)CC(Cc1ccccc1)C(=O)c1cc(O)ccc1O.Cl (racemic)
26 | 128 °C | COc1cccc(C(=O)C(Cc2ccc(F)c(F)c2)CN(C)C)c1.Cl (racemic)
27 | 141 °C | COc1cccc(C(=O)C(Cc2cccc(F)c2)CN(C)C)c1.Cl (racemic)
28 | 135.3 °C | CN(C)CC(Cc1ccccc1)C(=O)c1ccc2ccccc2c1.Cl (racemic)
29 | 134 °C | COc1ccc(CC(CN(C)C)C(=O)c2cccc(OC)c2)cc1.Cl (racemic)
30 | 118 to 120 °C | CNCC(Cc1cccc(C)c1)C(=O)c1cccc(OC)c1.Cl (racemic)
31 | 125 °C | COc1cc(C(=O)C(Cc2ccccc2)CN(C)C)cc(OC)c1OC.Cl (racemic)
32 | 89.5 °C | CC[C@@H](c1ccccc1)[C@H](CN(C)C)C(=O)c1cccc(OC)c1.Cl (racemic)

Row | Compound | melting point
33 | CN(C)CC(Cc1ccccc1)C(=O)c1cccc(O)c1.Cl (racemic) [Example 6, (2RS)-2-benzyl-3-dimethylamino-1-(3-hydroxyphenyl)-propan-1-one hydrochloride] | 169 °C
34 | CN(C)CC(Cc1ccccc1)C(=O)c1ccc2cc(O)ccc2c1.Cl (racemic) [Example 29, (2RS)-2-benzyl-3-dimethylamino-1-(6-hydroxynaphthalen-2-yl)-propan-1-one hydrochloride] | 180 to 182 °C
35 | COc1ccc(OC)c(C(=O)C(Cc2ccccc2)CN(C)C)c1.Cl (racemic) [Example 8, (2RS)-2-benzyl-1-(2,5-dimethoxyphenyl)-3-dimethylaminopropan-1-one hydrochloride] | 149 °C
36 | CSc1cccc(C(=O)C(Cc2ccccc2)CN(C)C)c1.Cl (racemic) [Example 22, (2RS)-2-benzyl-3-dimethylamino-1-(3-methylsulfanylphenyl)-propan-1-one hydrochloride] | 118 °C
37 | CN(C)CC(Cc1ccccc1)C(=O)c1cccc(C#N)c1.Cl (racemic) [Example 26, (2RS)-3-(2-benzyl-3-dimethylaminopropionyl)-benzonitrile hydrochloride] | 154 °C

From patent US6653508B2, “3-amino-2-benzyl-1-phenylpropane derivatives” (Gruenenthal GmbH, priority 1999, dated 2003)
